Test system: NI16 promoter fragment 274 bp
Assay: GUS florescence assay of promoter::GUS plants after SA application, NI16 274 bp fragment
Type: in vivo, Arabidopsis
Details: 5 mM SA spray
From the text: A binary promoter::reporter plasmid (pNOV2374) for Arabidopsis transformation was constructed. The regulatory/promoter sequence was fused to the GUS reporter gene (Jefferson et al. (1987) EMBO J 6: 3901-3907) by recombination using […] Technology according to the manufacturer's protocol as described in the Instruction Manual (LifeTechnologies, Rockville, Md.). The construct was then transformed into Agrobacterium tumefaciens strains by electroporation. pNOV2374 is a binary vector with a VS1 origin of replication, a copy of the Agrobacterium virg gene in the backbone, and a Basta® resistance selectable marker cassette between the left and right border sequences of the T-DNA. The Basta® selectable marker cassette comprises the Agrobacterium tumefaciens manopine synthase promoter (AtMas) (Barker et al., Plant Mol. Biol. 2, 335-350 (1983)) operably linked to the gene encoding Basta® resistance (i.e., the “BAR” gene, phosphinothricin acetyl transferase) (White et al., Nucl Acids Res 18: 1062 (1990)) and the 35S terminator. The AtMas promoter, the BAR coding sequence, and the 35S terminator are located at nt 4211 to nt 4679, nt 4680 to nt 5228, and nt 5263 to nt 5488, respectively, of pNOV2374. The vector contains […] recombination components, which were introduced into the binary vector backbone by ligating a blunt-ended cassette containing attR sites, ccdB, and a cholramphenicol resistance marker using the […] Vector Conversion System (LifeTechnologies, Rockville, Md.). The […] cassette was located between nt 126 and 1818 of pNOV2374. The promoter cassettes were inserted through an LR recombination reaction whereby the DNA sequence of pNOV2374 between nt 126 and nt 1818 were removed and replaced with the promoter of interest flanked by att sequences. […] The GIG gene (SEQ ID NO:29) contains the ST-LS1 intron from Solanum tuberosum at nt 385 to nt 576 of GUS (obtained from Dr. Stanton […], Purdue University, and described in Narasimhulu, et al. (1996) Plant Cell 8: 873-886.). […] The treatment was applied as a fine mist to the leaves. […] For quantitative analysis of promoter activity following induction treatments or in various Arabidopsis tissues and organs, GUS expression is measured florometrically. Tissue samples were harvested and ground in ice cold GUS extraction buffer (50 mM Na2HPO4 pH 7.0, 5 mM DTT, 1 mM Na2EDTA, 0.1% TritonX100, 0.1% sarcosyl). Ground samples were spun in a microfuge at 10,000 rpm for 15 minutes at 4° C. Following centrifugation, the supernatant was removed for the GUS assay and for a protein concentration determination. To measure GUS activity, the plant extract was assayed in GUS assay buffer (50 mM Na2HPO4 pH 7.0, 5 mM DTT, 1 mM Na2EDTA, 0.1% TritonX100, 0.1% sarcosyl, 1 mM 4-Methylumbelliferyl-beta-D-glucuronic acid dihydrate (MUG)), pre-warmed to 37° C. Reactions were incubated, and 100 uL aliquots were removed at 10 minute intervals over 30 minutes to stop the reaction by adding the 100 uL aliquots to tubes containing 900 uL of 2% Na2CO3. The stopped reactions were then read on a Tecan Spectroflourometer at 365 nm excitation and 455 emission wavelengths. Protein concentrations were determined using the BCA assay following the manufacturer's protocol. GUS activity is expressed as pmol MU/mg protein/min.

SMILES: O=C(O)c1ccccc1O [SA, salicylic acid]
- GUS Activity Induced by SA (2 h): 27.5 pmol/mg protein/min
- GUS activity Fold-change relative to T0 (uninduced) (2 h): 1.4 fold
- GUS Activity Induced by SA (4 h): 58.7 pmol/mg protein/min
- GUS activity Fold-change relative to T0 (uninduced) (4 h): 3.0 fold
- GUS Activity Induced by SA (8 h): 150.8 pmol/mg protein/min
- GUS activity Fold-change relative to T0 (uninduced) (8 h): 7.8 fold
- GUS Activity Induced by SA (24 h): 230.3 pmol/mg protein/min

From patent US7199286B2, “Plant-derived novel pathogen and SAR-induction chemical induced promoters, and fragments thereof” (Syngenta Participations AG, priority 1999, dated 2007)
